Data taken from patent US8865698B2, “Method of treatment using substituted pyrazolo[1,5-a]pyrimidine compounds” (Array BioPharma Inc., priority 2008, dated 2014).
Counter-ions that a name gives are not always drawn.

Each compound was assayed against histidine-tagged recombinant human TrkA, cytoplasmic domain (Homo sapiens (Human), UniProt P04629) (assay: TrkA ELISA Assay). Conditions: 2.5 nM TrkA, 500 μM ATP, 25 minutes; read-out: TrkA Elisa Enzyme IC50.
Format: biochemical
Experimental: An enzyme-linked immunosorbant assay (ELISA) was used to assess TrkA kinase activity in the presence of inhibitors. Immulon 4HBX 384-well microtiter plates (Thermo part #8755) were coated with a 0.025 mg/mL solution of poly (Glu, Ala, Tyr; 6:3:1; Sigma P3899). Various concentrations of test compound, 2.5 nM TrkA (Invitrogen Corp., histidine-tagged recombinant human TrkA, cytoplasmic domain), and 500 μM ATP were incubated for 25 minutes at ambient temperature in the coated plates while shaking. The assay buffer consisted of 25 mM MOPS pH 7.5, 0.005% (v/v) Triton X-100 and 5 mM MgCl2. The reaction mixture was removed from the plate by washing with PBS containing 0.1% (v/v) Tween 20. The phosphorylated reaction product was detected using 0.2 μg/mL of a phosphotyrosine specific monoclonal antibody (clone PY20) conjugated to horseradish peroxidase in conjunction with the TMB Peroxidase Substrate System (KPL). After the addition of 1M phosphoric acid, the chromogenic substrate color intensity was quantitated via absorbance at 450 nm. IC50 values were calculated using either a 4 or 5-parameter logistic curve fit.

Chain of histidine-tagged recombinant human TrkA, cytoplasmic domain (P04629 440-796): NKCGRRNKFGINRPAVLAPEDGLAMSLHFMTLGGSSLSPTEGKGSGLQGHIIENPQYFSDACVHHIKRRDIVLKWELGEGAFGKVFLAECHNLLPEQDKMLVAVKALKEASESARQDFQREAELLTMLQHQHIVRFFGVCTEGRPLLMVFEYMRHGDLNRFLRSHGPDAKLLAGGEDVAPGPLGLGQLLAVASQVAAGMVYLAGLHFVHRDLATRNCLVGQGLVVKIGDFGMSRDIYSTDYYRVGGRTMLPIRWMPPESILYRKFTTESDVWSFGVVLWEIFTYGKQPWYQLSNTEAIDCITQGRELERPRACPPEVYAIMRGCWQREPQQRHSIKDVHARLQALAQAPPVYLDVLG

Compound	IC50 [nM]
C[C@H]1CN(C(=O)Nc2cnn3ccc(N4CCC[C@@H]4c4cc(F)ccc4Cl)nc23)CCN1C(=O)OC(C)(C)C [Example 24, (S)-tert-butyl 4-(5-((R)-2-(2-chloro-5-fluorophenyl)pyrrolidin-1-yl)pyrazolo[1,5-a]pyrimidin-3-ylcarbamoyl)-2-methylpiperazine-1-carboxylate]	55
C[C@H]1CN(C(=O)Nc2cnn3ccc(N4CCC[C@@H]4c4cc(F)ccc4F)nc23)CCN1 [Example 31, (S)—N-(5-((R)-2-(2,5-difluorophenyl)pyrrolidin-1-yl)pyrazolo[1,5-a]pyrimidin-3-yl)-3-methylpiperazine-1-carboxamide hydrochloride]	88.3
O=C(Nc1cnn2ccc(N3CCC[C@@H]3c3cc(F)ccc3Cl)nc12)C1CNC1 [Example 47, (R)—N-(5-(2-(2-chloro-5-fluorophenyl)pyrrolidin-1-yl)pyrazolo[1,5-a]pyrimidin-3-yl)azetidine-3-carboxamide trifluoroacetate]	190
O=C(Nc1cnn2ccc(N3CC(F)(F)C[C@@H]3c3cccc(F)c3)nc12)N1CC(O)C1 [Example 7, (R)—N-(5-(4,4-difluoro-2-(3-fluorophenyl)pyrrolidin-1-yl)pyrazolo[1,5-a]pyrimidin-3-yl)-3-hydroxyazetidine-1-carboxamide]	77.5
O=C(Nc1cnn2ccc(N3CCC[C@@H]3c3cccc(F)c3)nc12)c1ccncc1 [Example 77, (R)—N-(5-(2-(3-fluorophenyl)pyrrolidin-1-yl)pyrazolo[1,5-a]pyrimidin-3-yl)isonicotinamide]	71.8
Cn1ccc(C(=O)Nc2cnn3ccc(N4CCC[C@@H]4c4cccc(F)c4)nc23)cc1=O [Example 70, (R)—N-(5-(2-(3-fluorophenyl)pyrrolidin-1-yl)pyrazolo[1,5-a]pyrimidin-3-yl)-1-methyl-2-oxo-1,2-dihydropyridine-4-carboxamide]	55.6
O=C(Nc1cnn2ccc(N3CCC[C@@H]3c3cc(F)ccc3F)nc12)N1C[C@@H]2C[C@H]1CO2 [Example 92, (1S,4S)—N-(5-((R)-2-(2,5-difluorophenyl)pyrrolidin-1-yl)pyrazolo[1,5-a]pyrimidin-3-yl)-2-oxa-5-azabicyclo[2.2.1]heptane-5-carboxamide]	107
C[C@H]1CN(C(=O)Nc2cnn3ccc(N4CCC[C@@H]4c4cc(F)ccc4Cl)nc23)CCN1 [Example 25, (S)—N-(5-((R)-2-(2-chloro-5-fluorophenyl)pyrrolidin-1-yl)pyrazolo[1,5-a]pyrimidin-3-yl)-3-methylpiperazine-1-carboxamide hydrochloride]	82.3
O=C(Nc1cnn2ccc(N3CCC[C@@H]3c3cc(F)ccc3F)nc12)C(=O)N1CCOCC1 [Example 103, (R)—N-(5-(2-(2,5-difluorophenyl)pyrrolidin-1-yl)pyrazolo[1,5-a]pyrimidin-3-yl)-2-morpholino-2-oxoacetamide]	82.4
CN1CCN(C(=O)Nc2cnn3ccc(N4CCC[C@@H]4c4cc(F)ccc4F)nc23)CC1 [Example 28, (R)—N-(5-(2-(2,5-difluorophenyl)pyrrolidin-1-yl)pyrazolo[1,5-a]pyrimidin-3-yl)-4-methylpiperazine-1-carboxamide]	57.4
CC(C)(C)OC(=O)N1CC(C(=O)Nc2cnn3ccc(N4CCC[C@@H]4c4cc(F)ccc4Cl)nc23)C1 [Example 46, (R)-tert-butyl 3-(5-(2-(2-chloro-5-fluorophenyl)pyrrolidin-1-yl)pyrazolo[1,5-a]pyrimidin-3-ylcarbamoyl)azetidine-1-carboxylate]	37.3
O=C(Nc1cnn2ccc(N3CCC[C@@H]3c3cncc(F)c3)nc12)N1CC[C@@H](O)C1 [Example 89, (R)—N-(5-((R)-2-(5-fluoropyridin-3-yl)pyrrolidin-1-yl)pyrazolo[1,5-a]pyrimidin-3-yl)-3-hydroxypyrrolidine-1-carboxamide]	896

The next compounds have a lower IC50 than those just listed; values first:

IC50 [nM]	Compound
32.2	O=C(Nc1cnn2ccc(N3CCC[C@@H]3c3cc(F)ccc3F)nc12)N1CCOCC1 [Example 13, (R)—N-(5-(2-(2,5-difluorophenyl)pyrrolidin-1-yl)pyrazolo[1,5-a]pyrimidin-3-yl)morpholine-4-carboxamide]
29.2	CC1(C(=O)Nc2cnn3ccc(N4CCC[C@@H]4c4cc(F)ccc4Cl)nc23)CCNCC1 [Example 49, (R)—N-(5-(2-(2-chloro-5-fluorophenyl)pyrrolidin-1-yl)pyrazolo[1,5-a]pyrimidin-3-yl)-4-methylpiperidine-4-carboxamide hydrochloride]
28.3	O=C(Nc1cnn2ccc(N3CCC[C@@H]3c3cc(F)ccc3Cl)nc12)N1CCC(O)CC1 [Example 42, (R)—N-(5-(2-(2-chloro-5-fluorophenyl)pyrrolidin-1-yl)pyrazolo[1,5-a]pyrimidin-3-yl)-4-hydroxypiperidine-1-carboxamide]
27.5	COC1CN(C(=O)Nc2cnn3ccc(N4CCC[C@@H]4c4cc(F)ccc4F)nc23)C1 [Example 16, (R)—N-(5-(2-(2,5-difluorophenyl)pyrrolidin-1-yl)pyrazolo[1,5-a]pyrimidin-3-yl)-3-methoxyazetidine-1-carboxamide]
20.2	O=C(Nc1cnn2ccc(N3CCC[C@@H]3c3cc(F)cc(Cl)c3)nc12)N1CC[C@H](O)C1 [Example 35, (S)—N-(5-((R)-2-(3-chloro-5-fluorophenyl)pyrrolidin-1-yl)pyrazolo[1,5-a]pyrimidin-3-yl)-3-hydroxypyrrolidine-1-carboxamide]
18	O=C(Nc1cnn2ccc(N3CCC[C@@H]3c3cc(F)ccc3C(F)F)nc12)N1CC[C@@H](O)C1 [Example 36, (R)—N-(5-((R)-2-(2-(difluoromethyl)-5-fluorophenyl)pyrrolidin-1-yl)pyrazolo[1,5-a]pyrimidin-3-yl)-3-hydroxypyrrolidine-1-carboxamide]
16.5	O=C(Nc1cnn2ccc(N3CCC[C@@H]3c3cc(F)ccc3F)nc12)C1(O)CC1 [Example 65, (R)—N-(5-(2-(2,5-difluorophenyl)pyrrolidin-1-yl)pyrazolo[1,5-a]pyrimidin-3-yl)-1-hydroxycyclopropanecarboxamide]
15.3	O=C(Nc1cnn2ccc(N3CCC[C@@H]3c3cccc(F)c3)nc12)c1cc[nH]n1 [Example 74, (R)—N-(5-(2-(3-fluorophenyl)pyrrolidin-1-yl)pyrazolo[1,5-a]pyrimidin-3-yl)-1H-pyrazole-3-carboxamide]
13.7	O=C(Nc1cnn2ccc(N3CCC[C@@H]3c3cc(F)ccc3Cl)nc12)N1CC(O)C1 [Example 8, (R)—N-(5-(2-(2-chloro-5-fluorophenyl)pyrrolidin-1-yl)pyrazolo[1,5-a]pyrimidin-3-yl)-3-hydroxyazetidine-1-carboxamide]
12.4	CC(C)(O)C(=O)Nc1cnn2ccc(N3CCC[C@@H]3c3cc(F)ccc3F)nc12 [Example 50, (R)—N-(5-(2-(2,5-difluorophenyl)pyrrolidin-1-yl)pyrazolo[1,5-a]pyrimidin-3-yl)-2-hydroxy-2-methylpropanamide]
11.7	O=C(Nc1cnn2ccc(N3CCC[C@@H]3c3cc(F)ccc3Cl)nc12)N1CCC[C@@H](O)C1 [Example 43, (R)—N-(5-((R)-2-(2-chloro-5-fluorophenyl)pyrrolidin-1-yl)pyrazolo[1,5-a]pyrimidin-3-yl)-3-hydroxypiperidine-1-carboxamide]
8.5	Cn1ccc(C(=O)Nc2cnn3ccc(N4CCC[C@@H]4c4cccc(F)c4)nc23)n1 [Example 73, (R)—N-(5-(2-(3-fluorophenyl)pyrrolidin-1-yl)pyrazolo[1,5-a]pyrimidin-3-yl)-1-methyl-1H-pyrazole-3-carboxamide]
6.6	Cc1cnc(C(=O)Nc2cnn3ccc(N4CCC[C@@H]4c4cccc(F)c4)nc23)cn1 [Example 82, (R)—N-(5-(2-(3-fluorophenyl)pyrrolidin-1-yl)pyrazolo[1,5-a]pyrimidin-3-yl)-5-methylpyrazine-2-carboxamide]
5.7	COc1ncccc1C(=O)Nc1cnn2ccc(N3CCC[C@@H]3c3cccc(F)c3)nc12 [Example 79, (R)—N-(5-(2-(3-fluorophenyl)pyrrolidin-1-yl)pyrazolo[1,5-a]pyrimidin-3-yl)-2-methoxynicotinamide]
4.8	COc1ccc(NC(=O)Nc2cnn3ccc(N4CCC[C@@H]4c4cc(F)ccc4F)nc23)cc1 [Example 20, (R)-1-(5-(2-(2,5-difluorophenyl)pyrrolidin-1-yl)pyrazolo[1,5-a]pyrimidin-3-yl)-3-(4-methoxyphenyl)urea]
4.65	NC(=O)C(=O)Nc1cnn2ccc(N3CCC[C@@H]3c3cc(F)ccc3F)nc12 [Example 99, (R)—N^1-(5-(2-(2,5-difluorophenyl)pyrrolidin-1-yl)pyrazolo[1,5-a]pyrimidin-3-yl)oxalamide]
3.2	O=C(Nc1cnn2ccc(N3CCC[C@@H]3c3cc(F)ccc3C(F)(F)F)nc12)N1CC[C@H](O)C1 [Example 84, (S)—N-(5-((R)-2-(5-fluoro-2-(trifluoromethyl)phenyl)pyrrolidin-1-yl)pyrazolo[1,5-a]pyrimidin-3-yl)-3-hydroxypyrrolidine-1-carboxamide]
3	O=C(Nc1cnn2ccc(N3CCC[C@@H]3c3cc(F)ccc3F)nc12)c1ncccn1 [Example 67, (R)—N-(5-(2-(2,5-difluorophenyl)pyrrolidin-1-yl)pyrazolo[1,5-a]pyrimidin-3-yl)pyrimidine-2-carboxamide]
